The conditions of data set [1]: known log D values from literature; sources a) MEDChem01, MEDChem03, b) calculated from logP and pKa, c) Winiwarter et al. 1998; cited from earlier work.
Data set [2] is described as follows: DIFI-log D: octanol-impregnated PVDF membrane (DIFI-tubes) / buffer distribution, UV readout. The note with it: for logD at 2 h: pH 7.4.
Procedure: All compounds of the validation set were dissolved in dimethylsulfoxide at a concentration of 10 mM (DMSO-stock).
The experiment started with the accurate coating of 0,45 μm hydrophobic PVDF membranes (Immobilon-P PVDF (Millipore) and PVDF-Plus (Whatman, Headquater: 27 Great West Road, Brentford, Middlesex, TW8 9BW, UK), which were fixed on the bottom of the DI FI-tub es.
Each membrane is impregnated with exactly 1 μl octanol and 1μl DMSO-stock.
After a short incubation of 10 min the tubes with the coated membranes were connected to a 96-deepwell plate which had been prefilled with exactly 1600 μl of the selected buffer solution (50 mM TAPSO (FLUKA, BioChemika, ArtNo.93357), pH 7.4).
The plate was then sealed and shaken for two hours. During this time the substance was distributed between the membrane, the octanol and the buffer solution accordingly.
After the distribution equilibrium was reached (after 2 h) the tubes were carefully disassembled from the top of the deepwell plate in order to analyze the octanol phase which still stucks to the membrane.
Therefore, the remaining compound in the octanol phase was washed out with additional octanol as eluent. The concentration of the substance in the eluent was then determined by UV spectroscopy at absorption wavelengths between 250 and 450 nm.
In order to know the exact sample concentration before incubation with buffer a reference plate was generated under the same conditions as the described sample plate above. The reference plate was directly treated with the eluent and the resulted reference concentration in the octanol phase was measured by UV spectroscopy.
The lipophilicity value log D may be calculated from the analyzed sample concentration after incubation with buffer (Co) and the reference concentration before distribution (Cref).
Due to the fact, that all UV measurements were carried out under the same conditions, the concentration term were replaced by UV-absorption values (Abs) at the same wavelength.
In this equation, Vw is the volume of the aqueous phase was divided by the volume of the octanol phase Vo.
For each compounds three determinations were performed according to the described method above. The preparation of the reference and sample plate was performed manually.

SMILES strings stand for the structures.

Regarding `COc1ccc(CCN2CCC(Nc3nc4ccccc4n3Cc3ccc(F)cc3)CC2)cc1` [Astemizole], the “Lit. log D” value in data set [1] is given as 4.10. In addition, in data set [2], the logD at 2 h was found to be 4.12.

Consider `Clc1ccccc1C(c1ccccc1)(c1ccccc1)n1ccnc1` [Clotrimazole], for which the “Lit. log D” value in data set [1] is reported as 4.99. Further, the logD at 2 h in data set [2] was determined as 4.91. For `COc1ccc([C@@H]2Sc3ccccc3N(CCN(C)C)C(=O)[C@@H]2OC(C)=O)cc1` [Diltiazem], the “Lit. log D” value in data set [1] was 2.32. In addition, in data set [2], the pH-dependent lipophilicity (logD) at 2 h was found to be 2.33. As for `Clc1ccc(C(c2ccccc2Cl)C(Cl)Cl)cc1` (centres unmarked) [Mitotane], in data set [1], the “Lit. log D” value was 4.87. The logD at 2 h in data set [2] is 4.78. `C[C@]12CC[C@H]3[C@@H](CCC4=CC(=O)CC[C@@]43C)[C@@H]1CC[C@@H]2O` [Testosterone] gave a logD at 2 h in data set [2] of 3.33. Consider `COc1ccccc1OCCNCC(O)COc1cccc2[nH]c3ccccc3c12` (centres unmarked) [Carvedilol], for which, in data set [1], the “Lit. log D” value is on record as 3.37. The same molecule yielded a logD at 2 h in data set [2] of 3.38. Take `C[C@@H]1C[C@H]2[C@@H]3CCC4=CC(=O)C=C[C@]4(C)[C@@]3(F)[C@@H](O)C[C@]2(C)[C@@]1(O)C(=O)CO` [Dexamethasone]: in data set [2] (1 μl octanol on 0,45 μm PVDF membrane / 1600 μl 50 mM TAPSO pH 7.4, shaken 2 h, UV 250-450 nm, three determinations), the “DIFI-log D” value is listed as 1.83. `CCOC(=O)C1=C(C)NC(C)=C(C(=O)OC)C1c1cccc(Cl)c1Cl` (centres unmarked) [Felodipine] registered a logD at 2 h in data set [2] of 4.84.

As to `CN(C)CC/C=C1/c2ccccc2Sc2ccc(Cl)cc21` [Chlorprothixene], the “Lit. log D” value in data set [1] was 4.19. The logD at 2 h in data set [2] amounted to 4.24.

`COCCOC(=O)C1=C(C)NC(C)=C(C(=O)OC(C)C)C1c1cccc([N+](=O)[O-])c1` (centres unmarked) [Nimodipine]: the “Lit. log D” value in data set [1] is given as 3.73. In data set [2], the logD at 2 h amounted to 3.61.

The record behind these values is patent US7527975B2, “Determination of high lipophilicity values” (Hoffmann-La Roche Inc., priority 2005, dated 2009).
